According to patent US10168342B2, “Lipid probes and uses thereof” (THE SCRIPPS RESEARCH INSTITUTE, priority 2015, dated 2019):
Where two headings read alike, the source gives them in different places.

Assays:
[1] = target: T1, AEA-DA lipid probe targets in Neuro2a cells (Mus musculus, UniProt D3YZZ5)
T1 sequence (D3YZZ5 35-224): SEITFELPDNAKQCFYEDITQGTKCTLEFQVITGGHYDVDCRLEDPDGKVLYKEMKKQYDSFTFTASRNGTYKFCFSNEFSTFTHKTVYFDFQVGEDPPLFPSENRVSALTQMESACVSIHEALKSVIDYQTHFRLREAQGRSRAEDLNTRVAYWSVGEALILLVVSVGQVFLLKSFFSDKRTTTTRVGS

[2] = target: T2, AEA-DA lipid probe targets in Neuro2a cells (Mus musculus, UniProt Q7TMK9)
T2 sequence (Q7TMK9 1-623): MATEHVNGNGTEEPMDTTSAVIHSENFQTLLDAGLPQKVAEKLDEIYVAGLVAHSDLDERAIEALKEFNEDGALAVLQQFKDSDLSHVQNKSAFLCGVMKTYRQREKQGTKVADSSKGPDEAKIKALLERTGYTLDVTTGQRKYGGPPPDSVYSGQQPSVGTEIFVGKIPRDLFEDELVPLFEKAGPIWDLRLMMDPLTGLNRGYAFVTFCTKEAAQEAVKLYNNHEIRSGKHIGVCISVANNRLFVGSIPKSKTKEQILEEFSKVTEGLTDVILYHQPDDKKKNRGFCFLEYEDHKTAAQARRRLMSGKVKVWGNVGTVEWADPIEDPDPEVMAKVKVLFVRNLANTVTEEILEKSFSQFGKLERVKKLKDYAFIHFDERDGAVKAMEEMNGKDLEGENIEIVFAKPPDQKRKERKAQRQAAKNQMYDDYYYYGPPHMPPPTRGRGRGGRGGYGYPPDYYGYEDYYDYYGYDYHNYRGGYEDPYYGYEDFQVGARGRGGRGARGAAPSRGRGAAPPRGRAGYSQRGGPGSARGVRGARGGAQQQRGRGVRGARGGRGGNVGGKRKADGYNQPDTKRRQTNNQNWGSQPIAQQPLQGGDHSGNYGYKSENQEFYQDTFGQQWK

[3] = target: T3, AEA-DA lipid probe targets in Neuro2a cells (Mus musculus, UniProt Q62465); conditions: for SILAC ratio, VAT1 (Q99536): Neuro2a cells, AEA-DA probe
T3 sequence (Q62465 1-406): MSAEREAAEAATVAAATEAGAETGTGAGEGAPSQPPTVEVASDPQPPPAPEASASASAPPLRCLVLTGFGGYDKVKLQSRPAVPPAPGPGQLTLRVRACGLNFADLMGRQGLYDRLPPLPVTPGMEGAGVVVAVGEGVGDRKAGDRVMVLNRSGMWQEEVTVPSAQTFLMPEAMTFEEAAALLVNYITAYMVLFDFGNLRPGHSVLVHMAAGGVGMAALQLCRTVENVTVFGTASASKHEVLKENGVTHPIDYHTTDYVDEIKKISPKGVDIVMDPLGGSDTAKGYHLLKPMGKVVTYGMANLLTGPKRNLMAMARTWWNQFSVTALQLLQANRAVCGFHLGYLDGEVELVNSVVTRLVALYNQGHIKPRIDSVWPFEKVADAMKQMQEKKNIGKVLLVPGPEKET

[4] = target: AEA-DA lipid probe targets in Neuro2a cells (Mus musculus, UniProt Q61584)
AEA-DA lipid probe targets in Neuro2a cells (Mus musculus, UniProt Q61584), sequence (Q61584 whole entry): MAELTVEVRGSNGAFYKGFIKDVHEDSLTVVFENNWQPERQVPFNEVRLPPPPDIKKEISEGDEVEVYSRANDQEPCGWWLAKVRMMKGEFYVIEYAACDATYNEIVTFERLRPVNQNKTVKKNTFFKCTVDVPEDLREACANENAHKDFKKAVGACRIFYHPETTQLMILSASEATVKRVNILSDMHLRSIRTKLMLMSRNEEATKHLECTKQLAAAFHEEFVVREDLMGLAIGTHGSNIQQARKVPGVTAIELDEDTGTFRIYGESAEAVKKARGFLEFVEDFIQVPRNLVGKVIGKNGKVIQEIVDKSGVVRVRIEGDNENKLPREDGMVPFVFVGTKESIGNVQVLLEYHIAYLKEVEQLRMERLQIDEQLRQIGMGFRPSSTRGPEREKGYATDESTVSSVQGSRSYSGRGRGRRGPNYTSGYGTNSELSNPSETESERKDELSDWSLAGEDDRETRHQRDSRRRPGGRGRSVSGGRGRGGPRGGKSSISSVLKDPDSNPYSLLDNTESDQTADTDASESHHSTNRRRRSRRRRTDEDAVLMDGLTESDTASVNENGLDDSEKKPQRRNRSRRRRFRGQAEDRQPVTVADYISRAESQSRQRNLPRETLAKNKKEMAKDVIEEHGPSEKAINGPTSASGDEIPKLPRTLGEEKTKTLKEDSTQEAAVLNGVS

[5] = target: T4, AEA-DA lipid probe targets in Neuro2a cells (Mus musculus, UniProt Q99J56)
T4 sequence (Q99J56 1-251): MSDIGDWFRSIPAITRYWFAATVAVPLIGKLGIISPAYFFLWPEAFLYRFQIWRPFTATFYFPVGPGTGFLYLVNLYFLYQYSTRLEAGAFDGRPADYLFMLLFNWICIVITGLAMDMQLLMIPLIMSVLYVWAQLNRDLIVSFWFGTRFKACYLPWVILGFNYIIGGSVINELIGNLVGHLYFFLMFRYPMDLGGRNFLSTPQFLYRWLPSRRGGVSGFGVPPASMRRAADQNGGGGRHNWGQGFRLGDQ

[6] = target: T5, AEA-DA lipid probe targets in Neuro2a cells (Mus musculus, UniProt Q8VCB1); conditions: for SILAC ratio, TMEM48 (Q8VCB1): Neuro2a cells, AEA-DA probe
T5 sequence (Q8VCB1 1-673): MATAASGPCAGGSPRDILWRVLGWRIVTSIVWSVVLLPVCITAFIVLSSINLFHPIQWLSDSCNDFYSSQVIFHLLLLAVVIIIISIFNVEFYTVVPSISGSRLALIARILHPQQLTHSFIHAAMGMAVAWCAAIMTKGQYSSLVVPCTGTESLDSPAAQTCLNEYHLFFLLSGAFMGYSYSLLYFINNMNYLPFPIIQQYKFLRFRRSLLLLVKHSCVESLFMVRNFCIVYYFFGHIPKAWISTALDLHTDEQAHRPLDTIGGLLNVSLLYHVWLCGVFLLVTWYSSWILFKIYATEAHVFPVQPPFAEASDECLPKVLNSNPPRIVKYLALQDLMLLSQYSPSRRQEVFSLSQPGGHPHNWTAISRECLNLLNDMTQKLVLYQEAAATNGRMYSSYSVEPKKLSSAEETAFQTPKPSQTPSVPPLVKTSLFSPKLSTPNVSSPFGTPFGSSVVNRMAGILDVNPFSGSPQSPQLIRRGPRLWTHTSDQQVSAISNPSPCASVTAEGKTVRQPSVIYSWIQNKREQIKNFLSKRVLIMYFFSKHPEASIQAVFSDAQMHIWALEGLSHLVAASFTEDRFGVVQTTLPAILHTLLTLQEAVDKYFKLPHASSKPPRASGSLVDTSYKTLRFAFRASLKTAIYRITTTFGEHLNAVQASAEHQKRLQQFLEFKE

[7] = target: T6, AEA-DA lipid probe targets in Neuro2a cells (Mus musculus, UniProt Q99JH8)
T6 sequence (Q99JH8 1-212): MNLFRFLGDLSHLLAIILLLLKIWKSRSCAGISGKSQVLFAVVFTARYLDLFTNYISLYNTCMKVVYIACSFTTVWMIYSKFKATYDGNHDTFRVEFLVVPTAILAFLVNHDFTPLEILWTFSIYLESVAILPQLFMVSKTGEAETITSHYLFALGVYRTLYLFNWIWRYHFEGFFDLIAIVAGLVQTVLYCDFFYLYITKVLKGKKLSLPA

[8] = target: T7, AEA-DA lipid probe targets in Neuro2a cells (Mus musculus, UniProt Q9D938)
T7 sequence (Q9D938 97-188): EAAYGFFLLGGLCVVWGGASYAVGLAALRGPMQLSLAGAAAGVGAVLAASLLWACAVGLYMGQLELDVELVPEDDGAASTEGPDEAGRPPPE

CCCCC/C=C\C/C=C\C/C=C\C/C=C\CCCC(=O)NCCO [AEA, anandamide, reference compound]
SILAC ratio, Tmed7 ([1]; competitor 200 μM): 1.5 | SILAC ratio Syncrip ([2]; competitor 200 μM): 1.2 | SILAC ratio, VAT1 (Q99536) ([3]; competitor 200 μM): 1.6 | SILAC ratio Vat1 ([3]; competitor 200 μM): 1.6 | SILAC ratio Fxr1 ([4]; competitor 200 μM): 1.1 | SILAC ratio, Derl1 ([5]; competitor 200 μM): 1.8 | SILAC ratio, TMEM48 (Q8VCB1) ([6]; competitor 200 μM): 1.9 | SILAC ratio, Tmem48 ([6]; competitor 200 μM): 1.9 | SILAC ratio Kdelr1 ([7]; competitor 200 μM): 1.2

O=C(/C=C/c1cccnc1)NCCCCC1CCN(C(=O)c2ccccc2)CC1 [FK-866, reference compound]
SILAC ratio, Tmed7 ([1]; competitor 25 μM): 1.1 | SILAC ratio Syncrip ([2]; competitor 25 μM): 1.1 | SILAC ratio, VAT1 (Q99536) ([3]; competitor 25 μM): 1.9 | SILAC ratio Vat1 ([3]; competitor 25 μM): 1.9 | SILAC ratio Fxr1 ([4]; competitor 25 μM): 1.4 | SILAC ratio, Derl1 ([5]; competitor 25 μM): 1.3 | SILAC ratio, Tmem160 ([8]; competitor 25 μM): 1.2 | SILAC ratio, TMEM48 (Q8VCB1) ([6]; competitor 25 μM): 1.2 | SILAC ratio, Tmem48 ([6]; competitor 25 μM): 1.2 | SILAC ratio Kdelr1 ([7]; competitor 25 μM): 1.1

CN1CCN(C(=O)c2c(-c3ccccc3)c3cc([N+](=O)[O-])ccc3n2C)CC1 [KML110, (1-Methyl-5-nitro-3-phenyl-1H-indol-2-yl)(4-methylpiperazin-1-yl)methanone]
SILAC ratio, Tmed7 ([1]; competitor 25 μM): 1.6 | SILAC ratio Syncrip ([2]; competitor 25 μM): 1.4 | SILAC ratio Vat1 ([3]; competitor 25 μM): 1.4 | SILAC ratio Fxr1 ([4]; competitor 25 μM): 1.5 | SILAC ratio, Derl1 ([5]; competitor 25 μM): 1.2 | SILAC ratio, Tmem160 ([8]; competitor 25 μM): 1.3 | SILAC ratio, Tmem48 ([6]; competitor 25 μM): 1.6 | SILAC ratio Kdelr1 ([7]; competitor 25 μM): 1.1

CN1CCN(C(=O)c2[nH]c3ccc([N+](=O)[O-])cc3c2-c2ccccc2)CC1 [MJN228, (4-Methylpiperazin-1-yl)(5-nitro-3-phenyl-1H-indol-2-yl)methanone]
SILAC ratio, Tmed7 ([1]; competitor 10 μM): 1.0 | SILAC ratio, Tmed7 ([1]; competitor 25 μM): 1.5 | SILAC ratio, Tmed7 ([1]; competitor 100 μM): 2.1 | SILAC ratio Syncrip ([2]; competitor 10 μM): 0.9 | SILAC ratio Syncrip ([2]; competitor 25 μM): 1.2 | SILAC ratio Syncrip ([2]; competitor 50 μM): 1.3 | SILAC ratio Syncrip ([2]; competitor 100 μM): 1.1 | SILAC ratio Vat1 ([3]; competitor 10 μM): 1.2 | SILAC ratio Vat1 ([3]; competitor 25 μM): 1.3 | SILAC ratio Vat1 ([3]; competitor 50 μM): 1.0 | SILAC ratio Vat1 ([3]; competitor 100 μM): 1.2 | SILAC ratio Fxr1 ([4]; competitor 10 μM): 1.2 | SILAC ratio Fxr1 ([4]; competitor 25 μM): 1.3 | SILAC ratio Fxr1 ([4]; competitor 50 μM): 1.1 | SILAC ratio Fxr1 ([4]; competitor 100 μM): 1.1 | SILAC ratio, Derl1 ([5]; competitor 10 μM): 1.2 | SILAC ratio, Derl1 ([5]; competitor 25 μM): 1.4 | SILAC ratio, Derl1 ([5]; competitor 50 μM): 1.7 | SILAC ratio, Derl1 ([5]; competitor 100 μM): 1.8 | SILAC ratio, Tmem160 ([8]; competitor 10 μM): 1.2 | SILAC ratio, Tmem160 ([8]; competitor 25 μM): 1.5 | SILAC ratio, Tmem160 ([8]; competitor 100 μM): 3.5 | SILAC ratio, TMEM48 (Q8VCB1) ([6]; competitor 25 μM): 1.5 | SILAC ratio, Tmem48 ([6]; competitor 10 μM): 1.3 | SILAC ratio, Tmem48 ([6]; competitor 25 μM): 1.5 | SILAC ratio, Tmem48 ([6]; competitor 50 μM): 1.9 | SILAC ratio, Tmem48 ([6]; competitor 100 μM): 2.8 | SILAC ratio Kdelr1 ([7]; competitor 10 μM): 1.1 | SILAC ratio Kdelr1 ([7]; competitor 25 μM): 1.2 | SILAC ratio Kdelr1 ([7]; competitor 50 μM): 1.5 | SILAC ratio Kdelr1 ([7]; competitor 100 μM): 1.5

C=CCN(C)CCCCCCOc1ccc(C(=O)c2ccc(Br)cc2)c(F)c1 [Ro 48-8071, reference compound]
SILAC ratio, Tmed7 ([1]; competitor 25 μM): 1.1 | SILAC ratio Syncrip ([2]; competitor 25 μM): 0.8 | SILAC ratio, VAT1 (Q99536) ([3]; competitor 25 μM): 1.2 | SILAC ratio Vat1 ([3]; competitor 25 μM): 1.2 | SILAC ratio Fxr1 ([4]; competitor 25 μM): 0.9 | SILAC ratio, Derl1 ([5]; competitor 25 μM): 1.1 | SILAC ratio, Tmem160 ([8]; competitor 25 μM): 1.2 | SILAC ratio, TMEM48 (Q8VCB1) ([6]; competitor 25 μM): 1.1 | SILAC ratio, Tmem48 ([6]; competitor 25 μM): 1.1 | SILAC ratio Kdelr1 ([7]; competitor 25 μM): 1.0
